Reference: US20040185510A1, “Use of labelled CCK-B receptor ligands for the detection and localization of malignant human tumours” (priority 1996, published 2004)
Non-standard residues stand in square brackets, D forms with d. No end group written: not given here. Nle = CCCC[C@H](N)C(=O)O

Experiments:
[1] = target: T1, CCK-B receptors in medullary thyroid carcinoma (MTC) tissue sections (Homo sapiens, UniProt P32239); experiment: Receptor autoradiography: displacement of [125I]-desulfated-CCK-10 (compound 13 or 14) binding to MTC tissue sections; conditions: for affinity of the mono 125I-iodinated radioligand: the two mono-iodinated compounds compared with each other
T1 construct: Receptor autoradiography is performed on 10- and 20-μm thick cryostat sections of the various tumour samples; from tissue; host or cells: human medullary thyroid carcinoma (MTC) tissue sections
T1 sequence (P32239 1-447): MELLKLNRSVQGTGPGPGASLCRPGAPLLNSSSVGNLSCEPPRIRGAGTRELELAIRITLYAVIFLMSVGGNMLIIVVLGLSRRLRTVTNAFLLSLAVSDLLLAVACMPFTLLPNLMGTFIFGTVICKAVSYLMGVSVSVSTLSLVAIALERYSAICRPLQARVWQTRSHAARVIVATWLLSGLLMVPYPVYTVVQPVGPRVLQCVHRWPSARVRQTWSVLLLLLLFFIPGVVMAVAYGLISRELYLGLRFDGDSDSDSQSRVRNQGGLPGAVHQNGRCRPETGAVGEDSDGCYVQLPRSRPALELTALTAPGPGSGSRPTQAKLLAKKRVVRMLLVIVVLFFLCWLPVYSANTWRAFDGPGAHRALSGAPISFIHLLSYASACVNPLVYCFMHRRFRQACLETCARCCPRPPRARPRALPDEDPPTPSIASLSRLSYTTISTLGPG
Experimental: The tissues are cut on a cryostat, mounted on microscopes slides, and then stored at −20° C. for at least 3 days to improve adhesion of the tissue to the slide. The slide-mounted tissue sections are allowed to reach room temperature and are preincubated in 50 mmol/l Tris-HCl, 130 mmol/l NaCl, 4.7 mmol/l KCl, 5 mmol/l MgCl2, 1 mmol/l ethylene glycol-bi(β-aminoethylether)-N,N,N′,N′-tetraacetic acid, and 0.5% bovine serum albumin, pH 7.4 (preincubation solution), for 30 min. at 25° C. The slides are then incubated in a solution containing the same medium as the preincubation solution except the bovine serum albumin is omitted, and the following compounds are added: 20000 dpm/100 μl of ^125I-CCK, 0.025% bacitracin, 1 mmol/l dithiothreitol, 2 μg/ml chymostatin, and 4 μg/ml leupeptin, pH=6.5. The slides are incubated at room temperature with the radioligand for 150 min., as described by Mantyh et al. (Gasteroenterology 1994, 107, 1019-30). To estimate non-specific binding, paired serial sections are incubated as described above, except that CCK-8 (sulfated) is added to the incubation medium. After the incubation, the slides are rinsed with four washes of 30 sec each in ice-cold preincubation solution, pH 7.4, dipped in ice-cold water, and then quickly dried in a refrigerator under a stream of cold air. The sections are subsequently exposed to a 3H-Ultrofilm for 1 week, to detect the precise location of the radioactivity.
Each point represents the optical density of binding measured in the tumour area. Non-specific binding is subtracted from all values.

[2] = target: T1, CCK-B receptors in medullary thyroid carcinoma (MTC) tissue sections; experiment: Receptor autoradiography: displacement of [125I]-CCK-10 analog (compound 15) binding to MTC tissue sections; conditions: increasing concentrations of unlabelled peptide, optical density in tumour area
Experimental: Receptor autoradiography is performed on 10- and 20-μm thick cryostat sections of the various tumour samples, as described by Reubi et al. (Cancer Res. 1990, 50, 5969-5977).
The tissues are cut on a cryostat, mounted on microscopes slides, and then stored at −20° C. for at least 3 days to improve adhesion of the tissue to the slide. The slide-mounted tissue sections are allowed to reach room temperature and are preincubated in 50 mmol/l Tris-HCl, 130 mmol/l NaCl, 4.7 mmol/l KCl, 5 mmol/l MgCl2, 1 mmol/l ethylene glycol-bi(β-aminoethylether)-N,N,N′,N′-tetraacetic acid, and 0.5% bovine serum albumin, pH 7.4 (preincubation solution), for 30 min. at 25° C. […] The sections are subsequently exposed to a 3H-Ultrofilm for 1 week, to detect the precise location of the radioactivity. […]
Tissue sections are incubated with 20,000 cpm/100 μl [^125I]-CCK-10 and increasing concentrations of unlabelled CCK-8 (unsulfated)(▴), CCK-8 (sulfated) (•) or somastotatin (∘). Each point represents the optical density of binding measured in the tumour area. […]
The displacement curves of DTPA substituted CCK-analogs, prepared as described in Example 2, are measured in order to determine the effect of the DTPA group and of substitution of some amino acids by other amino acids. […]
Each point represents the optical density of binding measured in the tumour area. […]

Substance	affinity of the mono 125I-iodinated radioligand [1]	displacement of [125I]-CCK-10 analog (compound 15) binding [2]	also measured
D-Tyr-Gly-Asp-[^125I-Tyr]-Nle-Gly-Trp-Nle-Asp-Phe-NH2 [compound 14]	same affinity	–	–
[^125I-D-Tyr]-Gly-Asp-Tyr-Nle-Gly-Trp-Nle-Asp-Phe-NH2 [compound 13]	same affinity	–	–
^115In-DTPA-Asp-Tyr-Nle-Gly-Trp-Nle-Asp-Phe-NH2 [compound 25]	–	complete displacement	–
[dY]GDY[Nle]GW[Nle]DF-NH2 [compound 12]	–	–	displacement of [125I]-desulfated-CCK-10 (compound 13 or 14) binding ([1]; increasing concentrations of unlabelled peptide): complete displacement
^115In-DTPA-DAsp-Tyr-Nle-Gly-Trp-Nle-Asp-Phe-NH2 [compound 26]	–	complete displacement	–
